Test results as given in patent publication US20070299079A1, “4-AMINO-PYRIDO[3,2-e]PYRAZINES, THEIR USE AS INHIBITORS OF PHOSPHODIESTERASE 10, AND PROCESSES FOR PREPARING THEM” (priority 2006, published 2007).

Tested on: not given
Experiment: not given
Conditions: not given

Row | Compound | melting point
1 | CCN1CC(C)=C(N2CCN(c3ccccc3)CC2)C2=C1N1CN(OC)C=C1C=N2 | 224 to 227 °C
2 | CON1C=C2C=NC3=C(N(CCC(F)(F)F)CC(C)=C3N)N2C1 [Example 8, 4-amino-8-methoxy-3-methyl-1-(3,3,3-trifluoropropyl)-imidazo[1,5-a]pyrido[3,2-e]pyrazine] | 273 to 276 °C
3 | CON1C=C2C=Nc3c(ncc(-c4ccccc4)c3N)N2C1 [Example 15, 4-amino-8-methoxy-3-phenyl-imidazo[1,5-a]pyrido[3,2-e]pyrazine] | 252 to 253 °C
4 | CCCN1CC(C)=C(NC)C2=C1N1CN(OC)C=C1C=N2 [Example 16, 4-(N-methyl-amino)-8-methoxy-3-methyl-1-propyl-imidazo[1,5-a]pyrido[3,2-e]pyrazine] | 111 to 113 °C
5 | CCCN1CC(C)=C(NCC)C2=C1N1CN(OC)C=C1C=N2 [Example 17, 4-(N-ethyl-amino)-8-methoxy-3-methyl-1-propyl-imidazo[1,5-a]pyrido[3,2-e]pyrazine] | 140 to 142 °C
6 | CCCN1CC(C)=C(N(C)C)C2=C1N1CN(OC)C=C1C=N2 [Example 19, 4-(N,N-dimethyl-amino)-8-methoxy-3-methyl-1-propyl-imidazo[1,5-a]pyrido[3,2-e]pyrazine] | 93 to 95 °C
7 | CCCCNC1=C(C)CN(CC)C2=C1N=CC1=CN(OC)CN12 [Example 20, 4-(N-butyl-amino)-1-ethyl-8-methoxy-3-methyl-imidazo[1,5-a]pyrido[3,2-e]pyrazine] | 62 to 65 °C
8 | CCN1CC(C)=C(NCc2ccccc2)C2=C1N1CN(OC)C=C1C=N2 [Example 21, 4-(N-benzyl-amino)-1-ethyl-8-methoxy-3-methyl-imidazo[1,5-a]pyrido[3,2-e]pyrazine] | 127 to 128 °C
9 | CCN1CC(C)=C(NC2CCCC2)C2=C1N1CN(OC)C=C1C=N2 [Example 22, 4-(N-cyclopentyl-amino)-1-ethyl-8-methoxy-3-methyl-imidazo[1,5-a]pyrido[3,2-e]pyrazine] | 93 to 95 °C
10 | CCCN1CC(C)=C(NC2CCCC2)C2=C1N1CN(OC)C=C1C=N2 [Example 23, 4-(N-cyclopentyl-amino)-8-methoxy-3-methyl-1-propyl-imidazo[1,5-a]pyrido[3,2-e]pyrazine] | 77 to 80 °C
11 | CCN1CC(C)=C(N2CCOCC2)C2=C1N1CN(OC)C=C1C=N2 [Example 24, 1-ethyl-8-methoxy-3-methyl-4-morpholino-imidazo[1,5-a]pyrido[3,2-e]pyrazine] | 132 to 133 °C
12 | CCCN1CC(C)=C(n2ccnn2)C2=C1N1CN(OC)C=C1C=N2 [Example 32, 8-methoxy-3-methyl-1-propyl-4-(1,2,3-triazol-1-yl)-imidazo[1,5-a]pyrido[3,2-e]pyrazine] | 218 to 220 °C
13 | CCCN1CC(C)=C(NC(C)=O)C2=C1N1CN(OC)C=C1C=N2 [Example 38, 4-(N-acetyl-amino)-8-methoxy-3-methyl-1-propyl-imidazo[1,5-a]pyrido[3,2-e]pyrazine] | 210 to 213 °C
14 | CCCN1CC(C)=C(N(C(C)=O)C(C)=O)C2=C1N1CN(OC)C=C1C=N2 [Example 39, 4-(N,N-diacetyl-amino)-8-methoxy-3-methyl-1-propyl-imidazo[1,5-a]pyrido[3,2-e]pyrazine] | 135 to 138 °C
15 | CCN1CC(C)=C(N(C(C)=O)C(C)=O)C2=C1N1CN(OC)C=C1C=N2 [Example 41, 4-(N,N-diacetyl-amino)-1-ethyl-8-methoxy-3-methyl-imidazo[1,5-a]pyrido[3,2-e]pyrazine] | 135 to 136 °C

Target: T1, PDE10 from pig striatum (Sus scrofa, UniProt A0A287B941)
Experiment: not given
Conditions: not given

Row | Compound | IC50
16 | 8-methoxy-3-methyl-1-propyl-4-(1,2,4-triazol-1-yl)-imidazo[1,5-a]pyrido[3,2-e]pyrazine [Example 33] | 25 nM
17 | 8-methoxy-3-methyl-1-propyl-4-(pyrazol-1-yl)-imidazo[1,5-a]pyrido[3,2-e]pyrazine hydro chloride [Example 30] | 155 nM
18 | 8-methoxy-3-methyl-1-propyl-4-pyrrolidino-imidazo[1,5-a]pyrido[3,2-e]pyrazine [Example 26] | 137 nM
19 | 8-methoxy-3-methyl-4-(2-methyl-imidazol-1-yl)-1-propyl-imidazo[1,5-a]pyrido[3,2-e]pyrazine [Example 34] | 395 nM
20 | 8-methoxy-3-methyl-4-piperidino-1-propyl-imidazo[1,5-a]pyrido[3,2-e]pyrazine [Example 27] | 302 nM

Tested on: MK-801-induced hyperactivity and stereotyped sniffing
Experiment: MK-801-induced hyperactivity and stereotyped sniffing, animal model of psychosis
Assay type: in vivo, rat
Conditions: female Wistar rats, p.o. 30 min prior to test, MK-801 0.1 mg/kg i.p., activity recorded 1 h
Experimental: Female Wistar rats (Crl: (WI) BR, Charles River, Sulzfeld, Germany) weighing 150 to 180 g were used for the MK-801-induced psychosis. Animals were housed under standard conditions in groups of five on a 12 h light/dark cycle (light on at 0600 h) with ad libitum access to food (Pellets, ssniff M/R 15, Spezialdiät GmbH, Soest/Westfalen) and water.
MK-801 (dizocilpine, MW 337.37) was obtained by Tocris, distributed by Biotrend Chemikalien GmbH, Köln, Germany.
Hydroxyethylcellulose was solved in distilled water.
MK-801 was dissolved in saline so that an administration volume of 0.5 ml/100 g was reached. The suspensions and solution were placed on a magnetic stirrer before and during dosing procedures.
The behaviour induced by the NMDA antagonist MK-801 is generally accepted as a rat model of psychosis. MK-801 induces stereotyped sniffing and hyperactivity in rats after intraperitoneal administration.
Locomotor activity of the rats was recorded by the MotiTest Apparatus (TSE, Bad Homburg, Germany). The test area consisted of a squared arena (45×45 cm) with protective plexiglass walls (20 cm of height) where rats could freely move. Horizontal movements were recorded by 32 infrared photocells arranged along the bottom of each wall of the arena. Activity [sec] was measured by the computer program “ActiMot” (TSE, Bad Homburg, Germany).
Stereotyped sniffing was scored by the experimenter every five minutes for one hour (12 intervals) according to the method described by Andiné et al. (1999). The scores of the 12 intervals were summed up at the end of the experiment.
The day of experiment the female rats were placed in the laboratory and received the test compound or vehicle at the appropriate time prior to test. MK-801 0.1 mg/kg was intraperitoneally administered 10 minutes prior to test.
At the beginning of the test the rats were placed in the centre of the squared arena of the MotiTest apparatus. Behaviour of the rats was recorded for one hour. After each run animals were removed and the boxes thoroughly cleaned and dried.
Results were analysed by one way analysis of variance (ANOVA). Tukey test was used for individual comparison. P<0.05 was regarded as significant.
MK-801 at 0.1 mg/kg i.p. was administered 10 min before testing. […] Activity and stereotyped sniffing was recorded for 1 h. Co=control without MK-801 stimulation, Cs=control with MK-801 stimulation. Significant to MK-801 stimulated control (=Cs): * p<0.05, *** p<0.001.

Row | Compound | Dose from which MK-801-induced hyperactivity is significantly reversed
21 | 4-amino-1-(2-chloro-phenyl)-8-methoxy-3-methyl-imidazo[1,5-a]pyrido[3,2-e]pyrazine [Example 11] | ≥ 0.5 mg/kg
22 | 4-amino-8-methoxy-3-methyl-1-propyl-imidazo[1,5-a]pyrido[3,2-e]pyrazine [Example 1] | ≥ 10 mg/kg

Same assay, conditions: female Wistar rats, p.o. 30 min prior to test, MK-801 0.1 mg/kg i.p., sniffing scored 1 h

Row | Compound | Dose from which MK-801-induced stereotyped sniffing is significantly reversed
23 | 4-amino-1-(2-chloro-phenyl)-8-methoxy-3-methyl-imidazo[1,5-a]pyrido[3,2-e]pyrazine [Example 11] | ≥ 0.5 mg/kg
24 | 4-amino-8-methoxy-3-methyl-1-propyl-imidazo[1,5-a]pyrido[3,2-e]pyrazine [Example 1] | ≥ 10 mg/kg

Target: T1, PDE10 from pig striatum
Experiment: Inhibition of PDE10 from pig striatum
Conditions: read-out: Km value of the substrate for PDE10 from pig striatum
Experimental: For the enzymatic testing of PDE10 activity 0.5 g of the isolated and frozen striatum was homogenised in 10 ml 50 mM Tris/Mg-buffer at 4° C. and centrifuged for one hour at 100000 g. The supernatant is called the cytosolic fraction and was removed and stored on ice. The pellet was resuspended in the same buffer, but containing 1% Triton and incubated for 45 min at 4° C. Both fractions were independently applied onto a 5 ml Hi Trap™ QHP column at the Äkta-FPLC. After washing the columns the bound PDE protein was eluted with an increasing sodium chloride gradient (0 mM-500 mM sodium chloride) in 50 mM Tris/Mg-buffer at 4° C. for the cytosolic fraction and in the presence of 1% Triton for the membrane fraction. […] The fractions with PDE10-activity were pooled and frozen in aliquots until use at −20° C.
PDE10 activity was determined in a one step procedure in microtiterplates. […] Nonspecific activity was tested without the enzyme. The reaction was initiated by addition of the substrate solution and was carried out at 37° C. for 30 minutes. Enzymatic activity was stopped by addition of 25 μl YSi—SPA-beads (Amersham-Pharmacia). One hour later the mixture was measured in a liquid scintillation counter for microtiterplates (Microbeta Trilux). To pipette the incubation mixture a robot Biomek (Fa. Beckman) is used. […] For determination of IC50 values the Hill-plot, 2-parameter-model, was used.

Row | Compound | Km
25 | Nc1nc2c(ncn2[C@@H]2O[C@@H]3COP(=O)(O)O[C@H]3[C@H]2O)c(=O)[nH]1 [cGMP] | 2.2 µM

Target: T2, PDE10 from rat striatum (Rattus norvegicus, UniProt Q9QYJ6)
T2 construct: 0.5 g of the isolated and frozen striatum was homogenised; from tissue; host or cells: striatum of male Wistar rats, anion-exchange FPLC fractions
T2 sequence (Q9QYJ6 1-794): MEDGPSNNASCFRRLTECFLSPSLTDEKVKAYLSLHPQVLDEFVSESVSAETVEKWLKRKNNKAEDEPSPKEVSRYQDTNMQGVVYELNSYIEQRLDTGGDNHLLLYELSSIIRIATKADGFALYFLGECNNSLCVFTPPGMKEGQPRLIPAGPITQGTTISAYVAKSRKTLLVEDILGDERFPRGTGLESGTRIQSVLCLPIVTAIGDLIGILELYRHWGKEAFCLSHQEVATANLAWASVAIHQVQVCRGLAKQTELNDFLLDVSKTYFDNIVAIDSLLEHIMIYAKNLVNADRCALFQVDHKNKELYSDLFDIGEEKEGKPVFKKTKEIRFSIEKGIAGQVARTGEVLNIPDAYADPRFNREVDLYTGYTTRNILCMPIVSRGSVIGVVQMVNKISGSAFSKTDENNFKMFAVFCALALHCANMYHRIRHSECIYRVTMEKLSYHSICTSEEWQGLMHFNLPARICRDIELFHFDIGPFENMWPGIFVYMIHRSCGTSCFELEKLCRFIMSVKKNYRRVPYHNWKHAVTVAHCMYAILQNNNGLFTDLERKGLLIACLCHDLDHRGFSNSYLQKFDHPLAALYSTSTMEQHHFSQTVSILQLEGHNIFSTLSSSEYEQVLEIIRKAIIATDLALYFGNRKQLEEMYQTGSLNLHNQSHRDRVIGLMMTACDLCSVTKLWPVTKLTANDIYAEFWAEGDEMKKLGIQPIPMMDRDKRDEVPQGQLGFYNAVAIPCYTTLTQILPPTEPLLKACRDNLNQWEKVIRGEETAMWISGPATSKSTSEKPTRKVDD
Experiment: Inhibition of PDE10 from rat striatum
Assay type: biochemical
Conditions: not given
Experimental: Phosphodiesterase isoenzyme 10 (PDE10) activity was determined in preparations of rat, pig and guinea pig striatum respectively. Striatum from male Wistar rats (180-200 g), male hybrid pigs (150 kg) and male guinea pigs (CRL (HA), 500 g) respectively were collected and frozen at −70° C.
For the enzymatic testing of PDE10 activity 0.5 g of the isolated and frozen striatum was homogenised in 10 ml 50 mM Tris/Mg-buffer at 4° C. and centrifuged for one hour at 100000 g.
Nonspecific activity was tested without the enzyme. […] For determination of IC50 values the Hill-plot, 2-parameter-model, was used.

Row | Compound | IC50
26 | COc1ccc(Cc2nccc3cc(OC)c(OC)cc23)cc1OC [Papaverine, reference compound] | 142 nM

Same assay, conditions: rat striatum preparation, 0.1 μM [3H]-cAMP, 37° C., 30 minutes; read-out: Inhibition of PDE10 from rat IC50

Row | Compound | IC50
27 | COc1ccc2nc(Cl)c3cnc(C(C)C)n3c2n1 [Intermediate A14] | 237 nM

Same assay, conditions: substrate Km, rat striatum

Row | Compound | Km
28 | Nc1nc2c(ncn2[C@@H]2O[C@@H]3COP(=O)(O)O[C@H]3[C@H]2O)c(=O)[nH]1 [cGMP] | 1.8 µM
